The values below come from paper PMC2217204 (The Journal of General Physiology, 2000).

SMILES strings stand for the structures.

In one test the target is T1, KACh channel (Rattus norvegicus, UniProt P48548+P63251).
T1 sequence (P63251 1-501): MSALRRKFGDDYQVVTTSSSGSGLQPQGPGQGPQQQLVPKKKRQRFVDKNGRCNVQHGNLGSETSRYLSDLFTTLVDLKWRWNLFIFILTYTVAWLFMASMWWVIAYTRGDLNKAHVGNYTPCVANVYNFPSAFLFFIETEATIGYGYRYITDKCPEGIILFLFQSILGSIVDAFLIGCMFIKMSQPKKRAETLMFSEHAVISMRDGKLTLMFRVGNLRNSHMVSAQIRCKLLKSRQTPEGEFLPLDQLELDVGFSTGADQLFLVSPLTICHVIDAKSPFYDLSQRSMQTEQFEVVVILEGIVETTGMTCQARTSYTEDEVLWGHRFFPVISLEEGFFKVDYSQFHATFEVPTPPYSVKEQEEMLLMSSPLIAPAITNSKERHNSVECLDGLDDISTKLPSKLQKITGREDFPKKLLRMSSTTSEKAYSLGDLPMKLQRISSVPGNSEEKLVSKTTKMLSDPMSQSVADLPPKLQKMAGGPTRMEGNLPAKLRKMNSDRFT
T1 sequence (P48548 1-419): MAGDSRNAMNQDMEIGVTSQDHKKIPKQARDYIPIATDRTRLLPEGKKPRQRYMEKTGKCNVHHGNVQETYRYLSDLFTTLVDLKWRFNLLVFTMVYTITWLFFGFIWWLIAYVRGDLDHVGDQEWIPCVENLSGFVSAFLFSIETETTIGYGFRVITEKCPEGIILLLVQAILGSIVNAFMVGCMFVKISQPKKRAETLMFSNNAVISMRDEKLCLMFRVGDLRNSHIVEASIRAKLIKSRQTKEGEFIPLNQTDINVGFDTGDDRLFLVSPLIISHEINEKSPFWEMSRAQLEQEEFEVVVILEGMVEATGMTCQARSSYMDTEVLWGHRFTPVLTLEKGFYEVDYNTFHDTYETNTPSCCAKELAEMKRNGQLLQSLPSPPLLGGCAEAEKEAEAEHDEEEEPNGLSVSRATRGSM
The class given is cell-based. Conditions: K 1/2 (effect on ATP-dependent gating of KACh channel), atrial inside-out patches, 100 μM GTP and 4 mM ATP; lipid 0.1, 1, 3, 10 and 30 μM; n = 3 each.
`CCCCCCCC(=O)OCC(CO)OC(=O)CCCCCCC` (centres unmarked) [1,2-dioctanoylglycerol] yielded an IC50 of 2.8 ± 0.4 µM.

`CCCCCCCC/C=C\CCCCCCCC(=O)OCC(CO)OC(=O)CCCCCCC/C=C\CCCCCCCC` (centres unmarked) [1,2-dioleoylglycerol] registered an IC50 of 21 ± 3 µM.

`CCCCC/C=C\C/C=C\CCCCCCCC(=O)OCC(O)CO` (centres unmarked) [1-monolinoleoylglycerol] registered an IC50 of 8.4 ± 2.2 µM.

The compound `CCCCCCCC/C=C\CCCCCCCC(=O)OCC(O)CO` (centres unmarked) [1-monooleoylglycerol] returned an IC50 of 42 ± 6 µM.

With `CCCCCC/C=C\CCCCCCCC(=O)OCC(O)CO` (centres unmarked) [1-monopalmitoleoylglycerol], the IC50 stood at 52 ± 7 µM.

`CCCCCCCC/C=C\CCCCCCCC(=O)OCC(CO)OC(C)=O` (centres unmarked) [1-oleoyl-2-acetylglycerol] came in with an IC50 of 22 ± 3 µM.

`CCCCCCCC/C=C\CCCCCCCC(=O)OC(CO)CO` [2-monooleoylglycerol] came in with an IC50 of 48 ± 8 µM.

Turning to `CC/C=C\C/C=C\C/C=C\C/C=C\C/C=C\C/C=C\CCC(=O)O` [Docosahexaenoic acid [22:6 (n-3)], Docosahexaenoic acid], the IC50 came out at 1.4 ± 0.2 µM.

In turn, `CC/C=C\C/C=C\C/C=C\C/C=C\C/C=C\CCCC(=O)O` [Eicosapentaenoic acid [20:5 (n-3)], Eicosapentaenoic acid] had an IC50 of 5.6 ± 2.2 µM.

`CCCCCCCC/C=C/CCCCCCCC(=O)O` [Elaidic acid [t-18:1 (n-9)], Elaidic acid] had an IC50 of 21.6 ± 4.8 µM.

Turning to `CCCCCC/C=C\CCCCCCCC(=O)O` [Palmitoleic acid [16:1 (n-7)], Palmitoleic acid], the IC50 was found to be 10.5 ± 2.4 µM.

Staying with this test, now noted: atrial inside-out patches, 100 μM GTP and 4 mM ATP; lipid 0.1, 1, 3, 10 and 30 μM; n = 3 each.
As for `CCCCC/C=C\C/C=C\C/C=C\C/C=C\CCCC(=O)O[C@@H](CO)COC(=O)CCCCCCCCCCCCCCCCC` [1-stearoyl-2-arachidonoyl-sn-glycerol], the “K 1/2 (effect on ATP-dependent gating of KACh channel)” value is recorded as “No effect”.

For `CCCCC/C=C\C/C=C\CCCCCCCC(=O)O[C@@H](CO)COC(=O)CCCCCCCCCCCCCCCCC` [1-stearoyl-2-linoleoyl-sn-glycerol], the “K 1/2 (effect on ATP-dependent gating of KACh channel)” value is on record as “No effect”.

As to `CCCCCCCC(=O)O` [Caprylic acid (8:0), Caprylic acid], the “K 1/2 (effect on ATP-dependent gating of KACh channel)” value was “No effect”.

As for `CCCCCCCCCCCCCC=CC(O)C(CO)NC(C)=O` (centres unmarked) [Ceramide (C-2)], the “K 1/2 (effect on ATP-dependent gating of KACh channel)” value is reported as “No effect”.

For `OCC(O)CO` [Glycerol], the “K 1/2 (effect on ATP-dependent gating of KACh channel)” value is listed as “No effect”.

For the compound `O=P(O)(O)OCC(O)CO` (centres unmarked) [Glycerophosphate], the “K 1/2 (effect on ATP-dependent gating of KACh channel)” value was “No effect”.

`CCCCC/C=C\C\C=C/C=C/C=C/[C@@H](SC[C@H](NC(=O)CC[C@H](N)C(=O)O)C(=O)NCC(=O)O)[C@@H](O)CCCC(=O)O` [Leukotriene C4]: the “K 1/2 (effect on ATP-dependent gating of KACh channel)” value is on record as “No effect”.

`CCCCCCCCCCCCCCCC(=O)O` [Palmitic acid (16:0), Palmitic acid]: the “K 1/2 (effect on ATP-dependent gating of KACh channel)” value is “No effect”.

As to `CCCCCCCCCCCCCC(=O)O[C@@H]1[C@@H](C)[C@@]2(O)[C@@H](C=C(CO)C[C@]3(O)C(=O)C(C)=C[C@@H]23)[C@@H]2C(C)(C)[C@]12OC(C)=O` [Phorbol myristate acetate], the “K 1/2 (effect on ATP-dependent gating of KACh channel)” value was “No effect”.

For the compound `CCCCC[C@H](O)/C=C/[C@H]1[C@H](O)CC(=O)[C@@H]1CCCCCCC(=O)O` [Prostaglandin E1], the “K 1/2 (effect on ATP-dependent gating of KACh channel)” value is “No effect”.

Consider `NCCCCNCCCN` [Spermidine], for which the “K 1/2 (effect on ATP-dependent gating of KACh channel)” value is recorded as “No effect”.

Still in this test, the particulars now being: read-out: K 1/2 (effect on ATP-dependent gating of KACh channel); atrial inside-out patches, 100 μM GTP and 4 mM ATP; lipid 0.1, 1, 3, 10 and 30 μM; n = 3 each.
For the compound `CCCCC/C=C\C/C=C\C/C=C\C/C=C\CCCC(=O)OC` [Arachidonic acid methyl ester], the IC50 stood at 12 ± 3 µM.

Take `CCCCC/C=C\C/C=C\C/C=C\C/C=C\CCCCO` [Arachidonyl alcohol]: the IC50 was 44 ± 7 µM.

For `CCCCC/C=C/C/C=C/CCCCCCCC(=O)O` [Linoelaidic acid [t,t-18:2 (n-6)], Linoelaidic acid], the IC50 came to 3.2 ± 0.6 µM.

As to `CCCCCCCC/C=C\CCCCCCCCCCCCCC(=O)O` [Nervonic acid [24:1 (n-9)], Nervonic acid], the IC50 came out at 12.5 ± 2.1 µM.
